The values below come from patent US10544156B2, “Hemi-synthetic trilobine analogs for use as a drug” (PIERRE FABRE MEDICAMENT, priority 2015, dated 2020).

Broadly, the inhibition is the percentage by which the read-out fell short of the control. Usually IC50 stands for the midpoint of a concentration-inhibition curve. Broadly, the EC50 is the concentration at which the effect is half-maximal.

The target in assay [1] is T1, His-DNMT1 (182 kDa, human) (Homo sapiens, UniProt P26358).
T1 construct: His; made in house
T1 sequence (P26358 whole entry): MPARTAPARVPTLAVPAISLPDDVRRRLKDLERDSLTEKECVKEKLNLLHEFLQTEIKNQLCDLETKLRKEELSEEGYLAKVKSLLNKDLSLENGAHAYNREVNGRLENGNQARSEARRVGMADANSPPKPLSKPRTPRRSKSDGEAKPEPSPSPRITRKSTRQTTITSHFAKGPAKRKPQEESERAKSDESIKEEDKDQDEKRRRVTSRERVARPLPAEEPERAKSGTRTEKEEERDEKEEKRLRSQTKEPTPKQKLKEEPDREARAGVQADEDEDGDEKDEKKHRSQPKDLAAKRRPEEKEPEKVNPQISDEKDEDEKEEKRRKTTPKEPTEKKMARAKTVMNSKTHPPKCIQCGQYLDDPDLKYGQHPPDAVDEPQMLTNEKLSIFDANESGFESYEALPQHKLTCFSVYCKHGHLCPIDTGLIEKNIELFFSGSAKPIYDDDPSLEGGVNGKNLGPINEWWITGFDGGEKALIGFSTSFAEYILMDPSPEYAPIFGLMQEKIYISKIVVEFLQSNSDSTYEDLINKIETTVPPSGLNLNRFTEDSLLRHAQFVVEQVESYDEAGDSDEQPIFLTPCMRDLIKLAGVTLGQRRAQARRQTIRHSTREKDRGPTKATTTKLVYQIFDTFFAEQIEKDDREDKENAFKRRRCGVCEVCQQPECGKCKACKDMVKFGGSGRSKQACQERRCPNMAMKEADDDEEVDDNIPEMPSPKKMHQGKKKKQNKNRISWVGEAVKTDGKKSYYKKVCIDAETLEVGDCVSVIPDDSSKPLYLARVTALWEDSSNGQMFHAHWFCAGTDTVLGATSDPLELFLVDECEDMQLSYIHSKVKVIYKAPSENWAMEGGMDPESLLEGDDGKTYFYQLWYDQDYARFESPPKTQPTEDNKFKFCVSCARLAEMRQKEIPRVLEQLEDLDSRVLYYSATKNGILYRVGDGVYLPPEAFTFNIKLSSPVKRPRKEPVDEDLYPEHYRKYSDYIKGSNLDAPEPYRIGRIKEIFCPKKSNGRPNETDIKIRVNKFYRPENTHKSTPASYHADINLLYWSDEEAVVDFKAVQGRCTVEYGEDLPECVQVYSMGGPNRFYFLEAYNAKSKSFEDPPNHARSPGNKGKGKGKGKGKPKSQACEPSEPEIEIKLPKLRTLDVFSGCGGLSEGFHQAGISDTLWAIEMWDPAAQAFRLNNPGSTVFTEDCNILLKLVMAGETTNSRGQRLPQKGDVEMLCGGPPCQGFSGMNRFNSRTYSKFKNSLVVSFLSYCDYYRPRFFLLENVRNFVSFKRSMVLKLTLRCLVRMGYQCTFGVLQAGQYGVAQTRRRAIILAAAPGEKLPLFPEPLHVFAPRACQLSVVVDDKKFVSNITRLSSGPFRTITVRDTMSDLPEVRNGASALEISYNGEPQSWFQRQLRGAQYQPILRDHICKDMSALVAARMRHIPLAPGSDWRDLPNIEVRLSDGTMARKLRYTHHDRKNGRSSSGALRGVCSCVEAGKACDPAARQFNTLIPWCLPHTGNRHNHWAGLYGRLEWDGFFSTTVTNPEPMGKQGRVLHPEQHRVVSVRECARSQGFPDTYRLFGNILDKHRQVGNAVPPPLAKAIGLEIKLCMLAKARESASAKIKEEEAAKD
Description: hDNMT1 assay ([methyl-3H] SAM Flashplate). It counts as biochemical. The settings on record: for inhibition at 10 µM: read-out: hDNMT 1 inhibition, Inhibition (%) 10 μM; for inhibition at 32 µM: read-out: hDNMT 1 inhibition, Inhibition (%) 32 μM. As for the experimental part:
His-DNMT1 (182 kDa, human) was cloned, expressed and purified as described (Halby et al. Chem Bio Chem 2012, 13, 157-165). The reaction was performed in a 10 μL total reaction volume in low volume NBS™ 384-well microplates (Corning), containing the tested compound (up to 1% DMSO), 1 μM of a SAM/[methyl-^3H] SAM (3TBq/mmol, PerkinElmer) mix in a ratio of 3-to-1 (isotopic dilution 1*:3), 0.3 μM of biotinylated hemimethylated DNA duplex (5′-GATmCGCmCGATGmCGmCGAATmCGmCGATmCGATGmCGAT-3′ and BIOT-5′-[…]-3′), and 90 nM of DNMT1 in methylation buffer (20 mM HEPES pH 7.2, 1 mM EDTA, 50 mM KCl, 25 μg/mL BSA). The reaction was incubated at 37° C. for 2 hours. 8 μL are then transferred into a streptavidin 96-well scintillant coated Flashplate™ (PerkinElmer) containing 190 μL of 20 μM SAH in 50 mM Tris-HCl pH 7.4. The Flashplate™ was agitated at room temperature for 1 hour and read in 200 μL of 50 mM Tris-HCl pH 7.4 on TopCount NXT (PerkinElmer). The percentage of inhibition is reported. The formula used to calculate the percentage of inhibition is [(X−Y)/X]×100, where X is the signal determined in the absence of the inhibitor and Y is the signal obtained in the presence of the inhibitor.

Assay [2] deals with luciferase reporter gene under control of methylated CMV promoter in KG-1 cells. In words: CMV-luc reexpression in KG-1 cells. The class given is cell-based, human. The settings on record: for Induction Fold (IF) of luciferase gene reporter in KG-1 CMV-Luc: 24 h, vs DMSO; for IF-24 h, KG1 CMV-Luc model: at 5 μM, 24 h (Table 5). As for the experimental part: KG-1 cells were stably transfected with the firefly luciferase reporter gene (luc+ from pGL3; Promega) under the control of the cytomegalovirus (CMV) promoter (from pEGFP-N1; Clontech Laboratories Inc.) partially methylated (50%). 20,000 cells per well were seeded in a 96-well plate. After 24 h incubation in the presence of the test compound or solvant (DMSO), the induction of the promoter was measured by quantification of the luciferase signal with the Brite-lite assay system (PerkinElmer) according to the manufacturer's protocol. The luminescence was measured on an EnVision multilabel plate reader (PerkinElmer), and the data are expressed as the fold induction as compared with the DMSO control. The mean of three experiments and the standard error is reported.

Assay [3] has as its system P16 promoter in colon cancer cells HCT116. Description: C5 DNA methylation analysis of CDKN2A (P16) promoter by COBRA. The class given is cell-based, human. The note with it: at 0.1 μM. As for the experimental part:
Cancer cell lines (colon HCT116 or leukaemia KG1) were treated with the compounds as indicated in the Data Tables and then analysed as following.
DNA was isolated from cultured cells using the DNeasy Blood and Tissue Kit according to the manufacturer's specifications (Qiagen). DNA bisulphite conversion was performed on 2 μg of DNA using the EZ DNA Methylation-Gold Kit according to the manufacturer's specifications (Zymo Research) and bisulfited DNA was eluted with 10 μL of water.
Two different techniques were used to analyse the DNA methylation profile after bisulfite conversion of genomic DNA: (A) cloning and sequencing or (B) COBRA. The primers for each promoter are specified in Table 4.
This technique is a variation of bisulfite sequencing and combines bisulfite conversion based polymerase chain reaction with restriction digestion. DNA methylation levels are easily and quickly measured at fewer CpG sites than bisulfite-cloning-sequencing.
DNA amplification was set up with 100 ng eluted bisulfited DNA in 50 μL PCR reaction containing 1×PCR buffer, 2.5 mM MgCl2, 0.3 mM dNTPs, 400 nM each primer and 1.25 units EpiTaq HS (Takara) on C1000 Touch™ thermal cycler by 98° C. for 10 sec, 55° C. for 30 sec, 72° C. for 30 sec×40 cycles. 20 μL of PCR amplicons were digested in 30 μL by 2 units of BsiEI at 60° C. for 90 min. DNA fragments were migrated by 2% agarose gel electrophoresis and each band was quantified by Image Lab Software v2.0 (BioRad Laboratories).

Assay [4] deals with HCT116 (colorectal cancer). Description: Anti-proliferative activity (ATPLite). It counts as cell-based. The note with it: Homo sapiens, HCT-116; daily treatment, cell viability by ATPLite; read-out: Antiproliferative activity: IC50 (μM) HCT116 (colorectal cancer). As for the experimental part:
(§1) To measure the anti-proliferative properties of tested molecules, 2×10^4 cells are seeded at day 0 in a 96 wells plate. The compounds to be tested, stored at −20° C. as 10^−2 M stock solution in 100% DMSO, are freshly diluted on day 1 in the cell medium, before adding a dose range of 3.2 nM to 10 μM to the cells. Cells are treated everyday and cell viability assessed after 3 days or 7 days of treatment. The cell viability is assessed using the ATPLite kit from Perkin (ATPlite 1 Step Luminescence Assay System, ref 3016739), following the provider instructions. The raw data are analyzed with GraphPad Prism software (v4.03) to generate IC50 values corresponding to the compound concentrations giving 50% reduction in cell viability. The values presented are the mean results of at least two independent experiments. The standard errors are indicated.
For orientation: In ATP-based viability assays light output follows the ATP content of the culture.

Another assay has as its system KG-1 (leukemia). In words: Anti-proliferative activity (ATPLite). The class given is cell-based. The note with it: Homo sapiens; daily treatment, cell viability by ATPLite; read-out: Antiproliferative activity: IC50 (μM) KG-1 (leukemia). As for the experimental part: as §1
For another assay, the system named is WM266-4 (melanoma). In words: Anti-proliferative activity (ATPLite). The settings on record: Homo sapiens, WM 266-4; two treatments instead of three; cell viability by ATPLite; read-out: Antiproliferative activity: IC50 (μM) WM266-4 (melanoma). It counts as cell-based. As for the experimental part:
as §1

SMILES strings stand for the structures.

Consider `COc1ccc2cc1Oc1ccc(cc1)C[C@@H]1NCCc3cc(OC)c4c(c31)Oc1cc3c(cc1O4)CCN(C)[C@H]3C2` [Trilobine (1), trilobine], for which, in assay [1], the inhibition at 10 µM was found to be 4%. Moreover, the “Induction Fold (IF) of luciferase gene reporter in KG-1 CMV-Luc” value (“Induction Fold (IF)” for short) is listed as 1.1 ± 0.1 in assay [2] (0.1 μM); 1.9 ± 1.2 in assay [2] (0.32 μM); 2.6 ± 1.4 in assay [2] (1 μM); 3.5 ± 1.1 in assay [2] (3.2 μM); 6.4 ± 0.1 in assay [2] (5 μM). In assay [2], the “IF-24 h, KG1 CMV-Luc model” value was 5.8 ± 0.6. The entries for the “Demethylation (COBRA) P16/HCT116” value in assay [3] (after 3 days), in assay [3] (after 7 days) and in assay [3] (after 21 days) were −37% after 3 days, −52% after 7 days and −53% after 21 days, respectively. In addition, the IC50 in assay [4] was determined as 1.19 ± 0.02 µM; in the assay with KG-1 (leukemia) it was 2.1 ± 0.8 µM; in the assay on WM266-4 (melanoma), 3.2 ± 0.8 µM.
For `CCN(CC)CCCNC(=S)N1CCc2cc3c4cc2[C@@H]1Cc1ccc(OC)c(c1)Oc1ccc(cc1)C[C@H]1c2c(cc(OC)c(c2O4)O3)CCN1C(=S)NCCCN(CC)CC` [Product 41], the EC50 in assay [1] (read-out: EC50 (μM), hDNMT 1 inhibition) came to 11 ± 0.7 µM. Moreover, the inhibition at 10 µM in assay [1] amounted to 60%. For the same compound, the inhibition at 32 µM in assay [1] was found to be 99%. Moreover, the “Induction Fold (IF)” value in assay [2] (0.1 μM) came out at 1.1 ± 0.1; in assay [2] (0.32 μM), 1.1 ± 0.1; in assay [2] (1 μM) it was 1.3 ± 0.1; in assay [2] (3.2 μM), 2.0 ± 0.3; in assay [2] (5 μM) it was 2.8 ± 0.2; in assay [2] (10 μM) it was 3.1 ± 0.4. For the same compound, the “IF-24 h, KG1 CMV-Luc model” value in assay [2] is listed as 3.3 ± 0.1. The “Demethylation (COBRA) P16/HCT116” value in assay [3] (after 7 days) was 0% after 7 days (at 0.1 μM). Further, the IC50 in assay [4] amounted to 0.96 ± 0.02 µM; in the assay on KG-1 (leukemia), 5.3 ± 0.4 µM; in the assay on WM266-4 (melanoma) it was 4.4 ± 1.5 µM.
Regarding `CNC(=O)N1CCc2cc(OC)c3c4c2[C@@H]1Cc1ccc(cc1)Oc1cc(ccc1OC)C[C@H]1c2cc(c(cc2CCN1C)O3)O4` [Product 44], the inhibition at 10 µM in assay [1] worked out at 0%. The inhibition at 32 µM in assay [1] came to 15%. The “Induction Fold (IF)” value in assay [2] (0.1 μM) is given as 1.1 ± 0.1; in assay [2] (0.32 μM), 1.1 ± 0.1; in assay [2] (1 μM), 1.3 ± 0.1; in assay [2] (3.2 μM), 2.0 ± 0.1; in assay [2] (5 μM), 2.5 ± 0.9; in assay [2] (10 μM) it was 9.0 ± 1.3. Further, in assay [2], the “IF-24 h, KG1 CMV-Luc model” value stood at 5.9 ± 0.2. In addition, in assay [3] (after 7 days), the “Demethylation (COBRA) P16/HCT116” value is 0% after 7 days (at 0.1 μM). Moreover, the IC50 amounted to 1.88 ± 0.03 µM in assay [4], 4.2 ± 0.05 µM in the assay with KG-1 (leukemia) and 12 ± 3 µM in the assay with WM266-4 (melanoma).
